From article PMC4368888, “Preclinical to Clinical Translation of CNS Transporter Occupancy of TD-9855, a Novel Norepinephrine and Serotonin Reuptake Inhibitor” (International Journal of Neuropsychopharmacology, 2015)
pEC50: −log10 of the molar value. Where two headings read alike, the source gives them in different places.

What was measured:
[1] = set-up: method as in Theravance Biopharma US, Inc., data on file; conditions: rat; ref Theravance Biopharma US, Inc., data on file; cited from earlier work
[2] = biological target: T1, NET (Homo sapiens, UniProt P23975); test: [3H]-NE uptake inhibition in HEK293-hNET cells; format: cell-based; set-up: expressed in transfected cells; host or cells: HEK293 (HEK293-hNET), stably transfected
T1 sequence (P23975 whole entry): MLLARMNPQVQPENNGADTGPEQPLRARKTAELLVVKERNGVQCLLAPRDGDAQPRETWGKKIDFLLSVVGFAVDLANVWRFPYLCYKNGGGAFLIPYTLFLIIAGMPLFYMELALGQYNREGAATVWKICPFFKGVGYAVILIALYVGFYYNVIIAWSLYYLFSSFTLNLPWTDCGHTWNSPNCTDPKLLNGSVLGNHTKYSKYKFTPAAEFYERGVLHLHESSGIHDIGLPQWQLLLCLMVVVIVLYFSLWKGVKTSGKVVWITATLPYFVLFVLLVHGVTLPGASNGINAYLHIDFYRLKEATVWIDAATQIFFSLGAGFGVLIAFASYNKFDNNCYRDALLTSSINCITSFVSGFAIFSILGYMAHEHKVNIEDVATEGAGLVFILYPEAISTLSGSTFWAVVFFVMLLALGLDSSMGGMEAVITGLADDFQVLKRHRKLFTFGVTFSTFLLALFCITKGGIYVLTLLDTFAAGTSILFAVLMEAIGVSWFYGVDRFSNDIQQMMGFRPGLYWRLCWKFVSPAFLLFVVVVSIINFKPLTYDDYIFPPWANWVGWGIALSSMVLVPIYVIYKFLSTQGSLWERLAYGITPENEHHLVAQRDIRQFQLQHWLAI
Excerpt: (§1) The in vitro pharmacology of TD-9855 (4-[2-(2, 4, 6-trifluorophenoxymethyl)phenyl]piperidine; Figure 1) at human recombinant and rat native monoamine transporters was characterized as described previously ([Tsuruda et al., 2010]; [Shen et al., 2013]). Radioligands were sourced commercially (Perkin Elmer Life Sciences or GE Healthcare Life Sciences). Briefly, membranes prepared from HEK293 (Human Embryonic Kidney 293) cells stably-transfected with human recombinant SERT (HEK293-hSERT), NET (HEK293-hNET), or DAT ([…]) were incubated for 1hr at 22°C in the absence, or presence, of TD-9855 and [^3H]-citalopram (1.0nM) for SERT, [^3H]-nisoxetine (2.0nM) for NET, and [^3H]-WIN35428 (3.0nM) for DAT in 50mM Tris-HCl, 120mM NaCl, 5mM KCl, 0.025% BSA, 100 μM ascorbic acid, pH 7.4. Rat cortical membrane preparations were incubated with [^3H]-citalopram (2.0nM) for SERT or [^3H]-nisoxetine (4.0nM) for NET for 1hr at 22°C. […] Binding and uptake assays were terminated by rapid filtration and radioactivity, determined by liquid scintillation spectroscopy.

[3] = biological target: T2, human recombinant DAT (Homo sapiens, UniProt Q01959); test: [3H]-DA uptake inhibition in hDAT cells; format: cell-based; conditions: mean (95% CI), 3 to 9 experiments, read-out: Neurotransmitter Uptake Inhibition: pIC50 DAT (converted)
T2 construct: expressed in transfected cells; 'hDAT cells' for uptake
T2 sequence (Q01959 whole entry): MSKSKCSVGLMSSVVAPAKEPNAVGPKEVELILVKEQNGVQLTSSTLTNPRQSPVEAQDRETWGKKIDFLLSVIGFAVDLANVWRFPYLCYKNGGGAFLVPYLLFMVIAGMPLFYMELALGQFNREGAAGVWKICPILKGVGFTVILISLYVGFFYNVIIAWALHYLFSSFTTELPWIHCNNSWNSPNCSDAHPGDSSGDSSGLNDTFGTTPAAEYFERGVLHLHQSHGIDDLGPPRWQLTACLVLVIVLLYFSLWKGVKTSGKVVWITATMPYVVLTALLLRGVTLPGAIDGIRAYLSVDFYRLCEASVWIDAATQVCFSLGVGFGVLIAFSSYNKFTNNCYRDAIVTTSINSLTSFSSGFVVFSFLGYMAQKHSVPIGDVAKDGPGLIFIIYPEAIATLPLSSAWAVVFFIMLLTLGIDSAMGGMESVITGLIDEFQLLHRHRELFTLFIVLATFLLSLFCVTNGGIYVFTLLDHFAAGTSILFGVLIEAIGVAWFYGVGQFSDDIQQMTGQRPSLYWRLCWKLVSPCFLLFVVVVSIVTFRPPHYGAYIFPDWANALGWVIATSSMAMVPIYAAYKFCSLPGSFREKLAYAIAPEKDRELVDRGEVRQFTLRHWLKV
Excerpt: as §1

[4] = system: P-gp; set-up: method as in Theravance Biopharma US, Inc., data on file; conditions: ref Theravance Biopharma US, Inc., data on file; cited from earlier work
[5] = set-up: method as in Theravance Biopharma US, Inc., data on file; conditions: human; ref Theravance Biopharma US, Inc., data on file; cited from earlier work
[6] = biological target: T3, SERT (Rattus norvegicus, UniProt P31652); test: Ex vivo SERT occupancy in rat spinal cord with PK/PD modeling; conditions: estimate (% CV)
T3 construct: from tissue; host or cells: rat lumbar spinal cord after oral dosing
T3 sequence (P31652 whole entry): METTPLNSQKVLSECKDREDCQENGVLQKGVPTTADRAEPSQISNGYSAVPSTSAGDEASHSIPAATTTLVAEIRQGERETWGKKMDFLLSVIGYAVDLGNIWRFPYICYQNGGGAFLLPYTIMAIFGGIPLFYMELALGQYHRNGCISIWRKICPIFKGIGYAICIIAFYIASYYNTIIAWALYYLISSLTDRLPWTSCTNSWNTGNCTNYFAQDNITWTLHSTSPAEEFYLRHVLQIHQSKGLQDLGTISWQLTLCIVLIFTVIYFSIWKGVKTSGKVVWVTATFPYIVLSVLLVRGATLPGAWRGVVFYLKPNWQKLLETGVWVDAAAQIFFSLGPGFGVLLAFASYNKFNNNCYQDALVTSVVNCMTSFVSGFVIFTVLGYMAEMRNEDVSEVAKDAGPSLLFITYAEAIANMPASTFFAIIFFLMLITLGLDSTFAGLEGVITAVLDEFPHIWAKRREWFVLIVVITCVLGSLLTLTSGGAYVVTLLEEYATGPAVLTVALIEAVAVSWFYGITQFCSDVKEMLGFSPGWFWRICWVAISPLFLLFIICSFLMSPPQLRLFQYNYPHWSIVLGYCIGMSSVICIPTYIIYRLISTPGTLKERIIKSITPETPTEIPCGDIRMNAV
Procedure: (§2) TD-9855 Rat Administration and Sampling — Rats (n = 6/timepoint/dose level) received a single oral dose of TD-9855 (0.3, 1, 5, 10, 30, and 60mg/kg) and were euthanized by decapitation at specified time points (0.5, 2, 4, 6, and 8hr for 5mg/kg dose level; 2hr for 0.3, 1, 10, 30, and 60mg/kg dose levels) post-administration. Spinal cords were dissected for ex vivo transporter occupancy and PK assessments from the same animals. The spinal cord was harvested by hydraulic extrusion using phosphate-buffered saline, and the lumbar segment dissected and frozen on dry ice. The remaining spinal cord segments were collected and homogenized in water (25% w/w) for PK analysis. All samples were stored at -80 °C until analysis.
(§3) A kinetic radioligand binding assay was used to determine NET and SERT occupancy in rat spinal cord, as described previously ([Bourdet et al., 2012]).
(§4) Rat PK/PD Modeling — PK/PD parameters were estimated by a compartmental modeling approach (WinNonlin Version 5.0.1, Pharsight Corporation). One- and two-compartment PK models with first-order absorption and elimination were evaluated. The one-compartment model was selected. The pharmacodynamic model was an effect compartment Emax model linked directly to the central PK compartment (WinNonlin PK Model 3, PD Model 101). Selection of models was based upon best fit in terms of visual inspection, Akaike Information Criteria, and weighted residual sum of squares using the Gauss-Newton minimization method. The following parameters were estimated:
(§5) Emax (% occupancy): Maximal SERT or NET occupancy in spinal cord
(§6) keo (hr^-1): First-order equilibration rate constant between the central pharmacokinetic compartment and the pharmacodynamic effect compartment

[7] = biological target: rat native NET (Rattus norvegicus, UniProt Q63380); test: [3H]-nisoxetine binding, rat cortical membranes; set-up: at human recombinant and rat native monoamine transporters; from tissue; conditions: mean (95% CI), 3 to 9 experiments, read-out: Transporter Binding: pKi NET (converted)
Sequence of rat native NET (Q63380 1-617): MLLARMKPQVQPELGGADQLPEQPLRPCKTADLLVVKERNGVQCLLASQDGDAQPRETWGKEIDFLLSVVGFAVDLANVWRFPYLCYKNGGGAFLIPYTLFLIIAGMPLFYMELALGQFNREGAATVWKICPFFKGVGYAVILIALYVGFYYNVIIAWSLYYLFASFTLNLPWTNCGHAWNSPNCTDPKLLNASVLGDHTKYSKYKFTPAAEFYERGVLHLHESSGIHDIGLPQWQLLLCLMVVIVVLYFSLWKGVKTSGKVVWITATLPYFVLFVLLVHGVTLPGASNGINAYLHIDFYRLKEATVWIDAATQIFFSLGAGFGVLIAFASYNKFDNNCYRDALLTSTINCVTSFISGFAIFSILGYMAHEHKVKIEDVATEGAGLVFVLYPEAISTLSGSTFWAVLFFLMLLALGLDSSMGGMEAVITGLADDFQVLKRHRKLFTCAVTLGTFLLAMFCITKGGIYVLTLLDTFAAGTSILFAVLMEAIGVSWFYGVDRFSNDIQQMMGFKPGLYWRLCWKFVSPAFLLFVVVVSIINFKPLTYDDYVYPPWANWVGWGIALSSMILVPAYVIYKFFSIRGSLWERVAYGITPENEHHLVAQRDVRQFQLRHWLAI
Excerpt: as §1

[8] = human, data on file, cited from earlier work
[9] = biological target: T1, NET; test: [3H]-nisoxetine equilibrium binding, HEK293-hNET membranes; set-up: expressed in transfected cells; host or cells: HEK293 (HEK293-hNET), stably transfected; conditions: mean (95% CI), 3 to 9 experiments, read-out: Transporter Binding: pKi NET (converted)
Excerpt: as §1

[10] = biological target: T4, NET (Rattus norvegicus, UniProt Q63380); test: Ex vivo NET occupancy in rat spinal cord with PK/PD modeling; conditions: estimate (% CV)
T4 construct: from tissue; host or cells: rat lumbar spinal cord after oral dosing
T4 sequence (Q63380 1-617): as above
Procedure: as §2, §3, §4, §5, §6

[11] = Safety and tolerability in Phase 1 PET study; format: in vivo, human; conditions: healthy males, single oral dose 4-20mg
Procedure: All adverse events (AEs) were assessed by the investigator and recorded in the case report form, including the dates of onset and resolution, severity, relationship to study drug, outcome, and action taken with study medication after the dosing of TD-9855 through the follow-up visit. Safety was assessed during the entire study by measurement of vital signs, laboratory tests, and evaluation of ECGs.

[12] = rat spinal cord, oral 0.3-60mg/kg
[13] = rat, equilibration rate constant plasma to effect compartment

In the case of `Fc1cc(F)c(OCc2ccccc2C2CCNCC2)c(F)c1` [TD-9855, 4-[2-(2,4,6-trifluorophenoxymethyl)phenyl]piperidine], the plasma protein binding [1] is listed as 90.2%, the “selectivity for inhibition of NET over SERT” value ([2]; human transporters, neurotransmitter uptake) is listed as 4 fold and the “inhibitory selectivity for NE” value ([2]; uptake in vitro, human and rat transporters) is listed as 4- to 10 fold. For the same compound, the IC50 [3] was 158 nM, the P-gp substrate status [4] was “non-P-gp substrate” and the plasma protein binding [5] was 79.1%. The “Emax (% Occupancy), SERT” value [6, 12] was 79.0 (53) % Occupancy, the pEC50 ([6]; rat spinal cord, plasma EC50) was 6.80 and the “keo, SERT” value [6, 13] was 11.0 (86) hr^-1. The Ki [7] was 2 nM, the Tmax ([8]; ascending single dose studies, ref Theravance Biopharma US, Inc.) was 6 to 12 h and the “pharmacokinetic (plasma) half-life” value ([8]; ref Theravance Biopharma US, Inc.) was 30 to 40 h. The “accumulation in plasma after repeated administration” value ([8]; ref Theravance) was 3- to 4 fold, the Ki [9] was 1.58 nM and the “Emax (% Occupancy), NET” value [10, 12] was 92.0 (19) % Occupancy. The pEC50 ([10]; rat spinal cord, plasma EC50) was 7.44, the “keo, NET” value [10, 13] was 1.78 (57) hr^-1 and the “clinical laboratory values, physical examination, vital signs, ECG” value [11] was “No clinically significant abnormalities”. For the same compound, the “deaths and adverse events” value [11] was “No deaths, severe AEs, or AEs occurred” and the overall tolerability [11] was “well tolerated”.
